Legend:
[1] = test system: E0771; experiment: Senescence associated β-Galactosidase (SA-β-Gal) staining; assay type: cell-based, murine; settings: for SALL1-induced senescent cell populations with MAPK inhibitor: 10 μM for 5 days, SALL1-transfected cells
Experimental: (§1) Senescence associated β-Galactosidase (SA-β-Gal) activity in tumor cells was detected as previously described (30, 33). Briefly, tumor cell lines were transfected with or without plasmids and cultured for 3 or 5 days. Cells were washed in PBS (pH 7.2), fixed in 3% formaldehyde, and followed to incubate overnight at 37° C. with freshly prepared SA-β-Gal staining solution (1 mg/ml X-gal, 5 mM K3Fe[CN]6, 5 mM K4Fe[CN]6, 2 mM MgCl2 in PBS at pH 6.0). The stained cells were washed with H2O and examined with a microscope. For some experiments, SA-β-Gal^+ populations were determined in the transfected tumor cells in the presence of following various inhibitors or combined transfection with shRNAs: ATM inhibitor KU55933 (20 μM, Tocris Bioscience); mTOR inhibitor Rapmycin (5 μM, Sigma); MAPK inhibitors U0126 (10 μM), SB203580 (10 μM) and SP600125 (10 μM), or PI3 Kinase inhibitor Wortminnin (10 μM) (Calbiochemistry), or transfection with shRNAs against p38, ERK and mTOR, for 3 or 5 days. The treated tumor cells were then detected for SA-β-Gal expression.
(§2) The methods for design and construction of shRNA specific for ERK1, ERK2, P38a, JNK1 and mTOR or scrambled lenti-shRNAs, and generation of recombinant lentivirus carrying GFP and shRNA, have been described previously (Peng et al., 2005 and Peng et al., 2007). For virus transfection, concentrated lentiviral supernatant with a multiplicity of infection (MOI) of 5-10 in a total volume of 0.5 ml culture medium was added to the tumor cells growing in 24 well plates containing 8 μg/ml polybrene (Sigma), and then centrifuged at 1000×g for 1 hr at room temperature. Tumor cells were sorted into GFP^+ and GFP^− cells with a FACS ARIA sorter at 3 or 4 days post-transfection. The sorted cells (GFP^+ and GFP^−) were then transfected with or without pcDNA3.1-SALL-1, and induction of senescence was determined.

[2] = test system: MCF-7; experiment: as above; assay type: cell-based, human; settings: for SALL1-induced senescent cell populations with MAPK inhibitor: 10 μM for 5 days, SALL1-transfected cells
Experimental: as §1, §2

[3] = test system: ATM-associated DNA damage response in E0771; experiment: DNA damage response markers by FACS; assay type: cell-based, murine; settings: KU55933 20 μM
Experimental: (§3) The expression of DNA damage response markers on tumor cells were determined by FACS analysis after staining with anti-human specific antibodies conjugated with either PE or FITC. These human antibodies included: anti-phosphorylated H2Ax, anti-phosphorylated p53 bp, and anti-phosphorylated ATM, which were purchased from Cell Signaling Technology or BD Biosciences. All stained cells were analyzed on a FACSCalibur flow cytometer (BD Bioscience) and data analyzed with FlowJo software (Tree Star).

[4] = test system: ATM-associated DNA damage response in MCF-7; experiment: DNA damage response markers by FACS; assay type: cell-based, human; settings: KU55933 20 μM
Experimental: as §3

[5] = pretreated 20 μM for 1 day, then SALL1 transfection, 3 days

Row | SMILES | SALL1-induced senescent cell populations with MAPK inhibitor [1] | SALL1-induced senescent cell populations with MAPK inhibitor [2] | SALL1-induced senescence induction with ATM inhibitor [1, 5] | SALL1-induced senescence induction with ATM inhibitor [2, 5] | phosphorylation of ATM in SALL1-transfected tumor cells with inhibitor [3] | phosphorylation of ATM in SALL1-transfected tumor cells with inhibitor [4]
1 | N#CC(=C(/N)Sc1ccccc1N)/C(C#N)=C(\N)Sc1ccccc1N [U0126] | significantly reduced | significantly reduced | – | – | – | –
2 | O=c1cc(-c2cccc3c2Sc2ccccc2S3)oc(N2CCOCC2)c1 [KU55933] | – | – | prevented the senescence induction | prevented the senescence induction | dramatically suppressed | dramatically suppressed
3 | C[S+]([O-])c1ccc(-c2nc(-c3ccncc3)c(-c3ccc(F)cc3)[nH]2)cc1 (centres unmarked) [SB203580] | significantly reduced | significantly reduced | – | – | – | –

From patent publication US10618944B2, “Tumor suppressor SALL1 as a therapeutic agent for treating cancer” (Saint Louis University, priority 2015, dated 2020)
